# From US4038033A, “Selenium labelled compounds in the saturation analysis of cyclic nucleotide” (The Radiochemical Centre, Limited, priority 1975, dated 1977)
# Experiments:
# binding protein = assay: Competitive inhibition of the binding of tritiated cyclic AMP to the binding protein; parameters: species or system bovine; settings: for % 3H-cyclic AMP bound: tritiated cyclic AMP 0.9pmol, zero-dose binding 54.5; for Cyclic AMP equivalent: unlabelled cyclic AMP giving equal reduction in binding
# Method: Because of the low activity of the 6-methylselenopurine riboside 3',5'-cyclic monophosphate-^75 Se its binding properties were investigated by using the selenium-75 compound as a competitive inhibitor of the binding of tritiated cyclic AMP to the binding protein.
# 6-methylselenopurine riboside 3',5'-cyclic monophosphate-^75 Se (specific activity 6.65m Ci/mmol) was made up in tris/EDTA buffer at concentrations of 1,156 pmoles, 105pmoles and 9.6pmoles per 50μl aliquot. In the normal assay 100μl of binding protein is incubated with tritiated cyclic AMP (0.9pmol) and unlabelled cyclic AMP (standards and unknowns). Bound and free labelled cyclic AMP are separated by absorption of free cyclic AMP on charcoal and bound activity is determined by counting a sample of the supernate. To determine the potency of the selenium analogue the zero-dose binding was first determined, ie. the percentage of tritiated cylic AMP bound in the absence of unlabelled cyclic AMP or selenium analogue. This was then compared with the binding of tritiated cylic AMP in the presence of 4 different doses of selenium analogue. From the results obtained it was possible to calculate the amounts of unlabelled cyclic AMP which would give a reduction in binding equal to that caused by the selenium analogue.
# [1] = tested on: natural binding protein extracted from bovine muscle; assay: Saturation analysis of cyclic AMP: binding of 75Se-labelled cyclic AMP derivative to binding protein and displacement by cyclic AMP; settings: for binding to natural binding protein extracted from bovine muscle / displacement with 3',5'-cyclic AMP from natural binding protein: qualitative; for Percentage of 75Se-labelled cyclic AMP bound: 3 picomoles ligand, pH 7.5, 2°-4° C., 3 hours
# Method: Standard solutions of cyclic AMP containing 1, 2, 4, 8 and 16 picomoles in 50mmol tris/4mmol EDTA buffer, pH 7.5 (50μl) were pipetted into assay tubes maintained at 2°-4° C. Buffer was also added to `total` `blank` and `zero dose` tubes (150, 150 and 50μl respectively),also at 2-4' C. To each tube was added 8-methylseleno-cyclic AMP-^75 Se (3 picomoles; specific activity ca 22Ci/mmol) in 50μl of buffer.
# Binding protein (ex bovine muscle) in 100μl of buffer was then added to all tubes except the `blanks`. The tubes were vortex mixed for approximately 5 seconds and then incubated at 2°-4° C. for 3 hours. A suspension of charcoal in water (100μl) was added to all tubes except the `totals` and after vortex mixing for approximately 5 seconds the tubes were immediately centrifuged to sediment the charcoal. A 200μl sample was removed from the supernate of each tube and from the `totals` and counted in a gamma counter.
# (§1) Results are expressed in terms of […]
# [2] = tested on: antibodies raised against these cyclic nucleotides (3',5'-cyclic AMP and 3',5'-cyclic GMP); assay: Binding of selenocysteine conjugates to antibodies raised against the cyclic nucleotides; settings: qualitative
# [3] = tested on: Antiserum (raised against cyclic GMP-2'-succinyl-BSA); assay: Saturation analysis of cyclic GMP: binding of Se-methyl-L-selenocysteine-75Se conjugate of 2'-O-succinyl cyclic GMP to antiserum and displacement by cyclic GMP; settings: 0.59 picomoles ligand, pH 7.5, 2°-4° C., 3 hours
# Method: (§2) Standard solutions of cyclic GMP containing 5, 10, 20, 40, 80 and 16,000 picomoles in 100μl of 50mmol tris/4mmol EDTA buffer, pH 7.5 were pipetted into assay tubes maintained at 2°-4° C.; the concentration of 16,000 picomoles/100μl was for determination of `non-specific binding`. 100μl of buffer was also added to a tube for determination of `zero dose` counts. To each tube was added Se-methyl-L-selenocysteine-^75 Se conjugate of 2' -O-succinyl cyclic GMP (0.59 picomoles; specific activity ca 16.1Ci/mmol) in 50μl of buffer. Antiserum (raised against cyclic GMP-2'-succinyl-BSA) in 50μl of buffer was then added to all tubes. The tubes were briefly vortex mixed and incubated at 2°-4° C. for 3 hours. 1ml of aqueous ammonium sulphate solution (60% saturated) at 2°-4° C. was added to all tubes which, after mixing, were kept at 2°-4° C. for 5 minutes and then centrifuged.
# After decantation of the supernate and removal of adhering liquid the precipitates were counted in a gamma counter. 0.59 picomoles of the Se-methyl-L-selenocysteine-^75 Se conjugate of 2' -O-succinyl cyclic GMP in 50μl of buffer was also counted to give `total` counts.
# as §1
# [4] = tested on: Antiserum (raised against cyclic GMP-2'-succinyl-BSA); assay: Saturation analysis of cyclic GMP: binding of 8-methylseleno-cyclic GMP-75Se to antiserum and displacement by cyclic GMP; settings: for Percentage of 75Se-labelled cyclic GMP bound: 0.25 picomoles ligand, pH 7.5, 2°-4° C., 3 hours
# Method: as §2, with “0.25, 0.5, 1.0, 2, 4, 8” for “5, 10, 20, 40, 80”, “7.5,” for “7.5”, “8-methylseleno-cyclic GMP-^75” for “Se-methyl-L-selenocysteine-^75”, “(0.25 picomoles,” for “conjugate of 2' -O-succinyl cyclic GMP (0.59 picomoles;”, “24Ci/mmol)” for “16.1Ci/mmol)”, “centrifuged. After decantation of the supernate and removal of adhering liquid the precipitates were counted in a gamma counter. 0.25 picomoles of 8-methylseleno-cyclic GMP-^75 Se (specific activity ca 24Ci/mmol) in 50μl of buffer was also counted to give `total` counts.” for “centrifuged.”
# as §1
smiles,measurement,setting,value
"C[75Se]c1ncnc2c1ncn2[C@@H]1O[C@@H]2COP(=O)(O)O[C@H]2[C@H]1O [III, 6methylselenopurineriboside-3',5'-cyclic monophosphate-^75 Se]",cyclic AMP causing as much displacement of tritiated cyclic AMP,binding protein; 9.6pmoles of Se analogue,12.2 pmol
same,% 3H-cyclic AMP bound,binding protein; Se analogue 9.6 pmoles/50μl,5.06%
same,Cyclic AMP equivalent,binding protein; Se analogue 9.6 pmoles/50μl,12.2 pmoles/50μl
same,% 3H-cyclic AMP bound,binding protein; Se analogue 105 pmoles/50μl,0.96%
same,Cyclic AMP equivalent,binding protein; Se analogue 105 pmoles/50μl,69.7 pmoles/50μl
same,% 3H-cyclic AMP bound,"binding protein; Se analogue 1,156 pmoles/50μl",0.42%
same,Cyclic AMP equivalent,"binding protein; Se analogue 1,156 pmoles/50μl",161 pmoles/50μl
same,binding power compared with cyclic AMP,binding protein; at the concentration employed (9.6pmoles),very similar binding powers
same,binding to natural binding protein extracted from bovine muscle,[1],shown to bind
same,"displacement with 3',5'-cyclic AMP from natural binding protein",[1],capable of displacement
C[75Se]C[C@H](NC(=O)CCC(=O)O[C@@H]1[C@@H]2OP(=O)(O)OC[C@H]2O[C@H]1n1cnc2c(=O)[nH]c(N)nc21)C(=O)O [V],binding to antibodies raised against these cyclic nucleotides,[2],bind strongly
same,Percentage of 75Se-labelled cyclic GMP bound,[3]; dose of cyclic GMP 0 picomoles,24.5%
same,Percentage of 75Se-labelled cyclic GMP bound,[3]; dose of cyclic GMP 5 picomoles,17.3%
same,Percentage of 75Se-labelled cyclic GMP bound,[3]; dose of cyclic GMP 10 picomoles,16.7%
same,Percentage of 75Se-labelled cyclic GMP bound,[3]; dose of cyclic GMP 20 picomoles,11.8%
same,Percentage of 75Se-labelled cyclic GMP bound,[3]; dose of cyclic GMP 40 picomoles,8.3%
same,Percentage of 75Se-labelled cyclic GMP bound,[3]; dose of cyclic GMP 80 picomoles,6.1%
"C[75Se]c1nc2c(N)ncnc2n1[C@@H]1O[C@@H]2COP(=O)(O)O[C@H]2[C@H]1O [I, 8-methylselenoadenosine 3', 5'-cyclic monophosphate-^75 Se]",Percentage of 75Se-labelled cyclic AMP bound,[1]; dose of cyclic AMP 0 picomoles,38.8%
same,Percentage of 75Se-labelled cyclic AMP bound,[1]; dose of cyclic AMP 1 picomole,29.7%
same,Percentage of 75Se-labelled cyclic AMP bound,[1]; dose of cyclic AMP 2 picomoles,26.7%
same,Percentage of 75Se-labelled cyclic AMP bound,[1]; dose of cyclic AMP 4 picomoles,21.4%
same,Percentage of 75Se-labelled cyclic AMP bound,[1]; dose of cyclic AMP 8 picomoles,16.6%
same,Percentage of 75Se-labelled cyclic AMP bound,[1]; dose of cyclic AMP 16 picomoles,10.6%
same,binding to natural binding protein extracted from bovine muscle,[1],shown to bind
same,"displacement with 3',5'-cyclic AMP from natural binding protein",[1],capable of displacement
C[75Se]C[C@H](NC(=O)CCC(=O)O[C@@H]1[C@@H]2OP(=O)(O)OC[C@H]2O[C@H]1n1cnc2c(N)ncnc21)C(=O)O [IV],binding to antibodies raised against these cyclic nucleotides,[2],bind strongly
"C[75Se]c1nc2c(=O)[nH]c(N)nc2n1[C@@H]1O[C@@H]2COP(=O)(O)O[C@H]2[C@H]1O [II, 8-methylselenoguanosine 3',5'-cyclic monophosphate-^75 Se]",Percentage of 75Se-labelled cyclic GMP bound,[4]; dose of cyclic GMP 0 picomoles,45.3%
same,Percentage of 75Se-labelled cyclic GMP bound,[4]; dose of cyclic GMP 0.25 picomoles,33.7%
same,Percentage of 75Se-labelled cyclic GMP bound,[4]; dose of cyclic GMP 0.5 picomoles,27.8%
same,Percentage of 75Se-labelled cyclic GMP bound,[4]; dose of cyclic GMP 1.0 picomoles,22.3%
same,Percentage of 75Se-labelled cyclic GMP bound,[4]; dose of cyclic GMP 2.0 picomoles,14.0%
same,Percentage of 75Se-labelled cyclic GMP bound,[4]; dose of cyclic GMP 4.0 picomoles,9.3%
same,Percentage of 75Se-labelled cyclic GMP bound,[4]; dose of cyclic GMP 8.0 picomoles,6.5%
same,binding to an antibody raised against cyclic GMP-2'-O-succinyl-BSA,[4]; qualitative,shown to bind
